According to patent publication US12258367B2, “Glucoside derivative that acts as SGLT1 inhibitor and application thereof” (MEDSHINE DISCOVERY INC., priority 2019, dated 2025):
Marks after values point to notes of the source that are not given here.

Columns and labels:
[1] = biological target: T1, Human-SGLT1 (Homo sapiens, UniProt P13866); assay: SGLT1 glucose transport assay ([14C]-methyl α-D-glucopyranoside uptake); assay type: cell-based; conditions: cells stably expressing Human-SGLT1, 37° C. for 2 hours
T1 sequence (P13866 1-664): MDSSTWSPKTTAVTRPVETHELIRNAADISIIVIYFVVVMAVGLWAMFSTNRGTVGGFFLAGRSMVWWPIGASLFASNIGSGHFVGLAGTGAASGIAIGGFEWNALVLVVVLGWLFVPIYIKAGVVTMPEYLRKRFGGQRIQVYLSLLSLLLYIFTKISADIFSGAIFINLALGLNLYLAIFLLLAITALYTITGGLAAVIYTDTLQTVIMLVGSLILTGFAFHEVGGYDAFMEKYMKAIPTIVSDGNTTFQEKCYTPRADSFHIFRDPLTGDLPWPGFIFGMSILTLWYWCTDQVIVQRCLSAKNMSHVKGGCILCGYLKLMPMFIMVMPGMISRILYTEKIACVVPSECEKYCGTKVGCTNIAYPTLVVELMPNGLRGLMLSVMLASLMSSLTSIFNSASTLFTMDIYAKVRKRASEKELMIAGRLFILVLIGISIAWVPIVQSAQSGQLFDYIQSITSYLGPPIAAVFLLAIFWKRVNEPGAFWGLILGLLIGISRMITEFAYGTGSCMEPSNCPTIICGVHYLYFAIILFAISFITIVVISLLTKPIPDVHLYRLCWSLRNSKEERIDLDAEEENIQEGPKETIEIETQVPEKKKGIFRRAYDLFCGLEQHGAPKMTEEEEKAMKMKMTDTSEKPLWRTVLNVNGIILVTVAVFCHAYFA
Procedure: The effect of the compounds on the glucose transport activity of the SGLT1 transporter was detected by measuring the amount of [^14C]-labeled glucose entering cells highly expressing Human-SGLT1.
The cells stably expressing Human-SGLT1 used in the assay were constructed by Shanghai WuXi AppTec. The SGLT1 cells were plated on a Cytostar-T (PerkinElmer) 96-well cell culture plate and cultured at 5% CO2, 37° C. overnight.

[2] = biological target: T2, Human-SGLT2 (Homo sapiens, UniProt P31639); assay: SGLT2 glucose transport assay ([14C]-methyl α-D-glucopyranoside uptake); assay type: cell-based; conditions: cells stably expressing Human-SGLT2, 37° C. for 2 hours
T2 sequence (P31639 1-672): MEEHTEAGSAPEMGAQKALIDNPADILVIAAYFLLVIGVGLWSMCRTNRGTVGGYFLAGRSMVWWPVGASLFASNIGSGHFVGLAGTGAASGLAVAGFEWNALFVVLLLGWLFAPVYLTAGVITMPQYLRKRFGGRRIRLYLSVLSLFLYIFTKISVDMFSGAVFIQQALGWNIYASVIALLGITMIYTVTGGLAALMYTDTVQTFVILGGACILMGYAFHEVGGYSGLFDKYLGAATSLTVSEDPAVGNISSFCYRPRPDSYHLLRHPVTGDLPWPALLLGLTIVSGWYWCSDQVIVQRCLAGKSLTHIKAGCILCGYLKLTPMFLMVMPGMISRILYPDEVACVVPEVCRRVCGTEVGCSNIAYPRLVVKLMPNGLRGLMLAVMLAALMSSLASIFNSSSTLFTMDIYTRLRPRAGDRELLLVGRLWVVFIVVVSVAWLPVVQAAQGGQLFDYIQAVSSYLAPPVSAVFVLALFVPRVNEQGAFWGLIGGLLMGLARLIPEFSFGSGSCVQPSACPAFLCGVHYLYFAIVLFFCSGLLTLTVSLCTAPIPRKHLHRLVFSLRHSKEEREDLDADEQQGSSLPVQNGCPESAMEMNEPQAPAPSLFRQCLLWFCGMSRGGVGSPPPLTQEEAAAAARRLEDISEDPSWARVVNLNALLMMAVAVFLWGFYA
Procedure: The effect of the compound on the glucose transport activity of the SGLT2 transporter was detected by measuring the amount of [^14C]-labeled glucose entering cells highly expressing Human-SGLT2.
The cells stably expressing Human-SGLT2 used in the assay were constructed by Shanghai WuXi AppTec. The SGLT2 cells were plated on a 96-well cell culture plate (Greiner) and cultured at 5% CO2, 37° C. overnight.

[3] = In vivo DMPK study in rats; conditions: male SD rats; for clearance / half-life / Vd: iv, 1 mg/kg intravenously; for clearance: read-out: Cl (clearance rate); for half-life: read-out: T1/2 (half-life) (converted); for Vd: read-out: VdSS (distribution volume)
Source text: Purpose of the assay: Male SD rats were used as test animals to determine the blood concentration of the compound after a single administration and evaluate the pharmacokinetic behavior.
Procedure of the assay: 4 healthy adult male SD rats were selected, 2 rats in the intravenous injection group, and 2 rats in the oral group. The test compound was mixed with an appropriate amount of vehicle (10% NMP/10% solutol/80% water) for the intravenous injection group, vortexed, and sonicated to prepare a clear solution of 0.5 mg/mL. The clear solution was filtered by a microporous membrane for use. The vehicle for the oral group was 10% NMP/10% solutol/80% water. The test compound was mixed with the vehicle, and then the mixture was vortexed and sonicated to prepare a clear solution of 1 mg/mL. Rats were administered 1 mg/kg intravenously or 10 mg/kg orally, and then whole blood was collected for a certain period. Plasma was prepared. The drug concentration was analyzed by LC-MS/MS method, and the pharmacokinetic parameters were calculated by Phoenix WinNonlin software (Pharsight, USA).

[4] = system: SD rats; assay: In vivo efficacy study of oral glucose tolerance in rats (OGTT); conditions: 5 mg/kg single gavage, then 50% glucose 2 g/kg, vehicle control 1063.4
Procedure: After the animals were fasted for 6 hours, they were administered WXD003 or vehicle according to Table 6, and then immediately administered 50% glucose solution (2 g/kg, 4 ml/kg).
The time for sugar administration was recorded as 0 point. The blood glucose of the animals was detected at 0 minute before sugar administration, and at 15, 30, 60, 90, 120 minutes after sugar administration, respectively. A curve of glucose tolerance was drawn based on the data of time versus blood glucose, and the area under curve (AUC) was calculated.
All values were expressed as average values. Statistical analysis was evaluated using Graphpad Prism 6 one-way analysis of variance and Tukey's multiple comparison test. A p value of less than 0.05 was considered statistically significant.

[5] = system: C57BL/6J male mice; assay: In vivo efficacy study in diabetic mouse model induced by STZ combined with high-sugar and high-fat diet; design: species or system C57BL/6J mice; conditions: for Glycosylated hemoglobin after 6 hours of fasting / Blood glucose after 6 hours of fasting: HFHS
Source text: 7 week-old C57BL/6J male mice, purchased from Jiangsu GemPharmatech Co., Ltd.
1) After the animals adapted to the environment, all mice were divided into two groups according to body weight, fed according to the scheme in Table 8, and injected with vehicle and streptozotocin (STZ) for modeling;
2) According to the random blood glucose test results of the model group, mice with random blood glucose greater than 11 mmol/L were enrolled in the group to continue the administration assay;
3) The mice in the model group that meet the criteria for enrollment were divided into 3 groups, 5 in the normal group, and 10 in each model administration group. The mice were administered according to the administration schedule in Table 9;
4) After starting the administration, the level of change in animal weight was monitored every day, and the blood glucose and glycosylated hemoglobin of the mice in each group after 6 hours of fasting were detected after 4 weeks and 7 weeks of administration, respectively;
5) Data analysis: All values were expressed as average values. Statistical analysis was evaluated using Graphpad Prism 6 one-way analysis of variance and Tukey's multiple comparison test, and a p value of less than 0.05 was considered statistically significant.

[6] = system: C57BL/6J male mice; assay: In vivo efficacy study in obese mouse model induced by HFHS diet; design: species or system C57BL/6J mice; conditions: for Blood glucose after 6 hours of fasting / Blood glucose 1 hour after meal: after 3 weeks of administration, HFHS; for Blood glucose after 6 hours of fasting: HFHS + Vehicle 10.5; for Blood glucose 1 hour after meal: HFHS + Vehicle 11.5
Source text: 5 week-old C57BL/6J male mice, purchased from Jiangsu GemPharmatech Co., Ltd.
1) After the animals adapted to the environment, they were fed a HFHS diet (Research Diet, HFHS, D12451) for 20 weeks, and then mice weighing more than 40 grams were selected for weight loss assay.
2) Animals whose body weight met the standard were adapted for vehicle administration, and then all mice were divided into 5 groups according to body weight for weight loss assay. The effect of the compound in reducing the body weight of animals was detected.
3) After starting the administration, the level of change in animal weight was monitored every day, and after 3 weeks of administration, the blood glucose levels of mice in each group after 6 hours of fasting and 1 hour after meal were detected, respectively;
4) Data analysis: All values were expressed as average values. Statistical analysis was evaluated using Graphpad Prism 6 one-way analysis of variance and Tukey's multiple comparison test, and a p value of less than 0.05 was considered statistically significant.

Row | Structure (SMILES) | IC50 [1] | IC50 [2] | clearance ([3]; rat, plasma) | half-life ([3]; rat, plasma) | Vd ([3]; rat, plasma) | also measured
1 | CS[C@H]1O[C@@H](c2ccc(C)c(Cc3ccc(CCCC(=O)NC(C)(C)C(=O)NCCN(C)C)cc3)c2)[C@H](O)[C@@H](O)[C@@H]1O [LX2761, reference compound] | 1.1 nM | 1.1 nM | 37.6 mL/min/kg | 1.9 h | 1.4 L/kg | 
2 | CCc1ccc([C@@H]2O[C@H](SC)[C@@H](O)[C@H](O)[C@H]2O)cc1Cc1ccc(OC2CCN(C(=O)C[C@H](N)Cc3cc(F)c(F)cc3F)CC2)cc1 [WXD003] | 0.7 nM | 0.6 nM | 32.5 mL/min/kg | 2.3 h | 1.5 L/kg | Oral DNAUC (AUCPO/Dose) ([3]; 10 mg/kg orally): 2 nM · h/mpk; bioavailability ([3]; rat, plasma, oral, 10 mg/kg orally vs 1 mg/kg intravenously, read-out: F % (oral bioavailability)): 0.2%; Cmax ([3]; rat, po, 10 mg/kg orally, plasma): 16.5 nM; OGTT blood glucose level AUC0-2 hours [4]: 624.2**** mmol/L × min; Glycosylated hemoglobin after 6 hours of fasting ([5]; after 4 weeks of administration, 3 mg/kg orally once a day, HFHS + Vehicle 4.9): 4.5*** %; Blood glucose after 6 hours of fasting ([5]; after 4 weeks of administration, 3 mg/kg orally once a day, HFHS + Vehicle 13.7): 10.3*** mmol/L; weight gain of animals ([5]; after 4 weeks of administration, FIG. 3): can effectively control the weight gain of animals; Glycosylated hemoglobin after 6 hours of fasting ([5]; after 7 weeks of administration, 6 mg/kg (week 4 to 7) orally once a day, HFHS + Vehicle 5.2): 4.4**** %; Blood glucose after 6 hours of fasting ([5]; after 7 weeks of administration, 6 mg/kg (week 4 to 7) orally once a day, HFHS + Vehicle 15.3): 9.6**** mmol/L; weight gain of animals ([5]; after 7 weeks of administration, FIG. 6): can effectively control the weight gain of animals; Blood glucose after 6 hours of fasting ([6]; 0.3 mg/kg orally once a day): 9.7 mmol/L; Blood glucose 1 hour after meal ([6]; 0.3 mg/kg orally once a day): 10.5 mmol/L; Blood glucose after 6 hours of fasting ([6]; 1 mg/kg orally once a day): 9.6 mmol/L; Blood glucose 1 hour after meal ([6]; 1 mg/kg orally once a day): 10.2 mmol/L; Blood glucose after 6 hours of fasting ([6]; 3 mg/kg orally once a day): 9.7 mmol/L; Blood glucose 1 hour after meal ([6]; 3 mg/kg orally once a day): 9.6* mmol/L; animal weight ([6]; after 3 weeks of administration, 0.3, 1, 3 mg/kg, FIG. 7 and FIG. 8): can significantly reduce animal weight in a dose-dependent manner
3 | CS[C@H]1O[C@@H](c2ccc(C)c(Cc3ccc(OC4CCN(C(=O)C[C@H](N)Cc5cc(F)c(F)cc5F)CC4)cc3)c2)[C@H](O)[C@@H](O)[C@@H]1O [WXD004] | 0.8 nM | 0.8 nM |  |  |  | 
4 | CCc1ccc([C@@H]2O[C@H](SC)[C@@H](O)[C@H](O)[C@H]2O)cc1Cc1ccc(OC2CCN(C(=O)C[C@@H](Cc3cc(F)c(F)cc3F)NC)CC2)cc1 [WXD005] | 3.5 nM | 1.4 nM |  |  |  | 
5 | CS[C@H]1O[C@@H](c2ccc(F)c(Cc3ccc(OC4CCN(C(=O)C[C@H](N)Cc5cc(F)c(F)cc5F)CC4)cc3)c2)[C@H](O)[C@@H](O)[C@@H]1O [WXD006] | 35 nM | 1.4 nM |  |  |  | 
6 | CS[C@H]1O[C@@H](c2cccc(Cc3ccc(OC4CCN(C(=O)C[C@H](N)Cc5cc(F)c(F)cc5F)CC4)cc3)c2)[C@H](O)[C@@H](O)[C@@H]1O [WXD007] | 69 nM | 5.8 nM |  |  |  | 
